For one series, the system named is catalepsy. Kind of series: catalepsy, alone and after a neuroleptic agent. In kind it is in vivo.
For series [1], the system named is mice. Nature of the series: traction (motor incoordination). The series is classed as in vivo, mice (EVIC CEBA strain). Conditions: i.p.
The subject of series [2] is rats. Kind of series: interaction with amphetamine (stereotypies in rats). In kind it is in vivo. The gist of the method: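 Test products given intraperitoneally as a gum arabic suspension (5 ml/kg in rats). Thirty minutes later, amphetamine 2 mg/kg is injected intraperitoneally; 6 animals per dose.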
In a further series the test system is central nervous system. Kind of series: psychopharmacological study / behaviour. The series is classed as in vivo, mice. Conditions: mouse, in vivo.
The subject of another series is man. Kind of series: clinical use in man. In kind it is in vivo.
For series [3], the system named is mice. Kind of series: interaction with oxotremorine (temperature, trembling, peripheral cholinergic symptoms). In kind it is in vivo.
The subject of series [4] is mice. Kind of series: spontaneous motility (actimeter). In kind it is in vivo. Conditions: i.p. The gist of the method: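 Compounds given i.p. as a gum arabic suspension at 20 ml/kg. Thirty minutes after dosing, mice (6 per dose, 12 controls) went into an actimeter and motility was recorded for half an hour.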
In series [5] the test system is rats. Nature of the series: interaction with methylphenidate (stereotypies). Conditions: species not given. In kind it is in vivo.
Series [6] has as its system rats. Kind of series: interaction with apomorphine (stereotype behaviour in rats). The series is classed as in vivo. As for the experimental part:
(§1) The following text summarises a part of the results of the tests which were carried out with the products according to the invention, these products (unless otherwise stated) being administered intraperitoneally, in suspension in a gum solution (gum arabic), in a volume of 20 ml/kg in the case of mice and of 5 ml/kg in the case of rats.
Batches of six rats are each given a subcutaneous injection of apomorphine (0.5 mg/kg) 30 minutes after the administration of CRL 40,373.
Batches of 6 rats are given a subcutaneous injection of 0.5 mg/kg of apomorphine 30 minutes after the administration of CRL 40,385.

Series [7] relates to mice. Kind of series: electrical shock (convulsing effects). In kind it is in vivo, mice (EVIC CEBA strain). Conditions: mice, i.p., large dose. As for the experimental part: as §1
(§2) The test is carried out on batches of 10 sensitive mice (EVIC CEBA strain), 30 minutes after the administration of CRL 40,373.
(§3) Batches of 10 mice are subjected to the test thirty minutes after having received CRL 40,385.

Series [8] has as its system mice. Kind of series: inter-group aggressiveness (number of fights). The series is classed as in vivo. Conditions: mice, i.p. A digest of the protocol:
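Mice were housed either three weeks (CRL 40,373) or 18 days (CRL 40,385, groups of 3) on each side of an opaque cage partition. Fights were counted over 15 min.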

The test system of series [9] is rats. Nature of the series: prolonged conditioning to take avoiding action (shuttle box). The series is classed as in vivo. The source says: Rats placed in a shuttle box are conditioned to avoid an electric shock by changing sides. The shock is preceded by a sound and light stimulus lasting 3 seconds, which ceases when sides are changed or after 8 seconds. The sequence is repeated every 20 seconds. Animals conditioned for several tens of minutes show a percentage of avoidance which is close to 100%. They continue to be subjected to the stimulus […] and gradually they reach a state in which they are no longer able to change sides during the period of 3 seconds during which no shock is delivered.
As a first approximation, such an effect can be likened to a resumption of conditioned activity in a tired animal.
Rats placed in a "shuttle box" are conditioned to avoid an electric shock lasting 5 seconds, by changing sides. The shock is preceded, for 3 seconds, by a sound and light stimulus which ceases when the rat changes side, or at the end of 8 seconds. The sequence repeats every 20 seconds. […] They continue to be subjected to the stimulus every 20 seconds and gradually they no longer succeed in avoiding the shock.
CRL 40,438 is then administered and any resumption of the avoidance movements is followed until the effect ceases.

Series [10] concerns mice. Nature of the series: toxicity (isolated mice, intraperitoneal). The series is classed as in vivo. Conditions: mice, i.p., at the doses mentioned above (64-1,024 mg/kg). The protocol: as §1
The nature of series [11]: toxicity (isolated mice, intraperitoneal). Conditions: mouse, in vivo, ip, isolated mice. The series is classed as in vivo. As for the experimental part: as §1
Series [12] concerns catalepsy induced by prochlorperazine. Nature of the series: anticataleptic effect (prochlorperazine-induced catalepsy). In kind it is in vivo. Conditions: i.p., 256 mg/kg. As for the experimental part:
CRL 40,385 or amantadine are administered intraperitoneally 4 hours and 30 minutes after the injection of prochlorperazine (12.5 mg/kg administered intraperitoneally). The catalepsy is assessed every 30 minutes by the plug test (9 cm), the four plug test, the test using parallel bars and the test of crossing the paws on the same side.

In series [13] the test system is mice. Nature of the series: motility reduced by habituation to a cage (residual motility). In kind it is in vivo. Conditions: i.p., from 32 mg/kg upwards. The gist of the method: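 Mice habituated 18 hours in actimeters received compound intraperitoneally as a gum arabic suspension (20 ml/kg) and were returned to their cages. Motility was recorded for 30 minutes starting half an hour after dosing, with 6 animals per dose and 12 controls.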

Series [14] concerns mice. Nature of the series: four-plate test. The series is classed as in vivo, mice (EVIC CEBA strain). Conditions: mice, i.p. As for the experimental part:
as §1, §2, §3

For series [15], the system named is mice. Nature of the series: interaction with reserpine (hypothermia, ptosis). In kind it is in vivo.
In series [16] the test system is mice. Nature of the series: motility reduced by hypoxia treatment (motor recovery). In kind it is in vivo. Conditions: mice, i.p.
Series [17] in a line: toxicity in mice in groups. Conditions: mouse, in vivo, ip. As for the experimental part:
as §1
The LD50 for intraperitoneal administration are as follows: […]

For series [18], the system named is awake rats with spontaneous hypertension. Kind of series: hypotensive action in awake rats with spontaneous hypertension. Conditions: 100 mg/kg orally. In kind it is in vivo. As for the experimental part: In the tests reported below, CRL 40,385 was administered in suspension in a solution of gum arabic, in a volume of 2 ml/kg. The hypotensive action was studied in awake rats with spontaneous hypertension. One batch of 7 rats is given 100 mg/kg of CRL 40,385 orally, followed, 2 hours later, by a fresh dose of 100 mg/kg of this product.

Each structure is given as a SMILES string. “Also recorded” adds a separate entry of the source.

As for `O=C(CN1C(=O)NC(c2ccccc2)(c2ccccc2)C1=O)NO` [CRL 40,382, 3-(5,5-Diphenyl-hydantoinyl)-acetohydroxamic acid], the “cataleptigenic effects of a neuroleptic agent” value in the series on catalepsy (after a preliminary dose of a neuroleptic agent) is given as “boosts the cataleptigenic effects of a preliminary dose of a neuroleptic agent”. Further, the catalepsy result in the series with catalepsy (in vivo) is given as “does not in itself cause catalepsy; also recorded: absence of catalepsy”. The “motor incoordination / incapacity” value in the series with mice [1] is “absence of catalepsy and of motor incapacity”. Further, in the series with rats [2] (species not given), the amphetamine-induced stereotypies entry is on record as “antagonism to the stereotypies induced by amphetamine” and the “other effects of amphetamine (hypermotility, group toxicity)” value was “without altering the other effects of this substance (hypermotility, group toxicity)”. Also, the “psychopharmacological profile / conclusion” value in the series on central nervous system is recorded as “antipsychotic activity associated with a moderate sedative effect”. For the same compound, the clinical result in the series with man (tablet 250 mg, 2 to 3 tablets per day) is listed as “used clinically with success as a sedative”. The effects of oxotremorine entry in the series on mice [3] (mouse, in vivo) is “absence of antagonism to the effects of oxotremorine”. In addition, in the series with mice [4], the spontaneous motility result is “moderate hypomotility”. In addition, in the series with rats [5], the “effect of methylphenidate (stereotypies)” value was “does not counteract the effect of apomorphine and of methylphenidate”. Also, the “effect of apomorphine (stereotypies)” value with rats [6] (species not given) is on record as “does not counteract the effect of apomorphine”.

Consider `O=C(CC(=O)N(c1ccccc1)c1ccccc1)NO` [CRL 40,385, α-(N,N-Diphenylcarbamoyl)-acetohydroxamic acid], for which, in the series on mice [7], the “convulsing effects of the electrical shock” value was “counteracts the convulsing effects of the electrical shock”. The “motor incoordination / incapacity” value in the series on mice [1] is “does not cause a major motor deficiency”. Besides, the inter-group aggressiveness entry in the series on mice [8] is “reduces the aggressiveness”. Moreover, in the series on rats [9], the “resumption of avoiding actions (prolonged avoidance test)” value was “causes a resumption of avoiding actions in animals”. The mortality entry in the series with mice [10] is given as “no mortality whatsoever”. The LD50 in series [11] came to 1500 mg/kg. For the same compound, in the series with rats [2] (i.p., 256 mg/kg), the amphetamine-induced stereotypies result is “lengthening of the duration of the amphetamine-induced stereotypies”. Also, the “intensity of anticataleptic effect compared with amantadine” value in series [12] is “less intense than that of an 8 times smaller dose of amantadine”. For the same compound, the “cataleptigenic action of prochlorperazine” value in series [12] (prochlorperazine 12.5 mg/kg i.p.) was “counteracts the cataleptigenic action of prochlorperazine”. Moreover, in the series on central nervous system, the “body temperature effect (product alone)” value was “does not have a hypothermic action”; the “psychopharmacological profile / conclusion” value is “the most marked property is the anti-fatigue activity; also recorded: Some of its effects recall an anti-depressant type of activity, and others recall a psychostimulant type of activity; also recorded: psycho-stimulant properties”. The clinical result with man (tablet or pill 100 mg, 2 to 3 per day) is listed as “used clinically with success for anti-fatigue treatment”. In addition, the “peripheral cholinergic symptoms of oxotremorine” value with mice [3] (mice, i.p.) was “does not modify the increase in salivation, lachrymation and defaecation”. In addition, the oxotremorine-induced trembling entry with mice [3] (mice, i.p., 128 mg/kg and above all 512 mg/kg, oxotremorine 0.5 mg/kg i.p.) is on record as “a reduction in the intensity of the trembling movements produced by oxotremorine”. For the same compound, the “temperature (oxotremorine-induced hypothermia)” value with mice [3] (mice, i.p., 32 and 128 mg/kg, oxotremorine 0.5 mg/kg i.p.) is recorded as “very partial antagonism against the hypothermia produced by oxotremorine”. Also, the “motility reduced by habituation to the cage” value in the series on mice [13] is recorded as “causes a resumption of activity in animals habituated to their cage”. Also, the “number of incorrect moves (four-plate test)” value with mice [14] was “does not produce an increase in the number of incorrect moves”. For the same compound, in the series on mice [15] (i.p.), the reserpine-induced ptosis result is on record as “does not modify the intensity of the palpebral ptosis induced by reserpine”. Besides, the reserpine-induced hypothermia result in the series with mice [15] (i.p., 64, 128 and 256 mg/kg, reserpine 2.5 mg/kg i.p.) is “moderate antagonism towards reserpine-induced hypothermia”. Besides, in the series with mice [16] (Mus musculus, ip, read-out: dose at which improvement of motor recovery after hypoxia appears), the minimal effective dose was found to be 32 mg/kg. The “motor recovery after hypoxia/anoxia by pressure reduction” value in the series on mice [16] (32 mg/kg increasing up to 512 mg/kg) is recorded as “causes an improvement in the motor recovery of mice”. In [17] (mice in groups), the LD50 worked out at 1050 mg/kg. For the same compound, in series [17] (read-out: ratio LD50 (isolated mice)/LD50 (mice in groups)), the selectivity ratio amounted to 1.43. Also, the spontaneous motility result in the series on mice [4] (mice, 128 and 256 mg/kg) was “moderate increase in the spontaneous motor activity”. Further, in the series with mice [4] (mice, dose larger than 128 and 256 mg/kg), the spontaneous motility result is “effect disappears”. Besides, in series [18], the hypotensive effect entry is “hypotensive effect”. The “arterial pressure (minimum)” value in series [18] (4 hours after second administration, from 166 mm Hg) is given as 142 mm Hg. Moreover, the pulse rate in [18] (after first administration, from 364) is 334 beats/minute. For the same compound, in series [18] (after second administration), the pulse rate change entry was “does not vary” and the “time to minimum arterial pressure” value came to 4 h. In [18] (after second administration, statistically significant), the “reduction of arterial pressure” value is reported as 13%. Also, the “average reduction of arterial pressure” value in series [18] (first administration) is on record as 10%. Also, in [18] (first administration, statistically significant), the “reduction of pulse rate” value is 8%. In addition, in the series on rats [6] (rats, i.p., large dose, apomorphine 0.5 mg/kg s.c.), the apomorphine-induced stereotypies entry was “increase in the duration of the stereotypies induced by apomorphine”.

Usually LD50 stands for the dose at which mortality reaches 50%. High values mean a less toxic substance, low ones a more toxic substance.

(Values after patent US4151300A, “Acetohydroxamic acids” (Laboratoire L. Lafon, priority 1976, dated 1979).)
